Laboratory results: patent publication US5766914A, “Method of producing and purifying enzymes” (Michigan State University, priority 1995, dated 1998)

Tests used:
[1] = tested on: CotC-β-galactosidase fusion (47 codons of B. subtilis cotC, SEQ ID NO:4, fused to E. coli lacZ) in the spore coat of spores from the cotC-lacZ fusion strain of …; experiment: β-galactosidase assay, KM for ONPG, spore-immobilized fusion; type: biochemical, Escherichia coli / Bacillus subtilis; conditions: 0.1M sodium phosphate pH 7.5, room temperature, Michaelis-Menten curve through normalized data, FIG. 3
Method: (§1) β-galactosidase assay. The assay is based on that of Sambrook, et al. (J. Sambrook, et al., "Molecular Cloning (A laboratory manual)", 2nd Ed. Cold Spring Harbor Laboratory Press, Cold Spring Harbor, New York, 1989) with minor modifications. The assay mixture contains 0.1M sodium phosphate, pH 7.5, containing 3 mM o-nitrophenyl β-D-galactopyranoside […] (ONPG), 40.5 mM 2-mercaptoethanol and 90 μM MgCl2 in a total volume of 600 μL. Reactions were initiated by addition of enzyme, and carried out at room temperature unless otherwise noted. Activity was determined from the slopes of initial rates monitored at 420 nm. O-nitrophenol, the product of β-galactosidase-catalyzed hydrolysis of ONPG, has a molar extinction coefficient at 420 nm under assay conditions of 3.1×10^3 M^-1 cm^-1 (R. C. Weast, "Handbook of Chemistry and Physics", 60th ed. CRC Press, Boca Raton, Fla., 1979). β-galactosidase activity is reported in units of μmol ONPG hydrolyzed/min.
cot-lacZ fusions. Strains bearing the cotC-lacZ and cotD-lacZ fusions were generously provided by L. Kroos. […]
The cotC-lacZ fusion includes 355 bp upstream of the open reading frame of cotC and 47 codons of the open reading frame fused in frame to lacZ from plasmid pSGMU31. The cotD-lacZ fusion includes 237 upstream bp and 58 codons of the open reading frame of cotD. […]

[2] = target: native β-galactosidase (soluble; lacZ of Escherichia coli) (Escherichia coli, UniProt P00722); experiment: β-galactosidase assay, KM for ONPG, native enzyme; type: biochemical; conditions: 0.1M sodium phosphate pH 7.5, room temperature, Michaelis-Menten curve through normalized data, FIG. 3
Method: as §1
Catalytic properties of β-galactosidase in the spore coat. FIG. 3 diagrams KM values for native β-galactosidase (.circle-solid.) and the CotC-β-galactosidase fusion in the spore coat of spores from the cotC-lacZ fusion strain (.box-solid.). Data sets were normalized to the same Vmax value, set equal to 100. […]

native β-galactosidase (soluble; lacZ of Escherichia coli), sequence (P00722 2-1024 limits assumed): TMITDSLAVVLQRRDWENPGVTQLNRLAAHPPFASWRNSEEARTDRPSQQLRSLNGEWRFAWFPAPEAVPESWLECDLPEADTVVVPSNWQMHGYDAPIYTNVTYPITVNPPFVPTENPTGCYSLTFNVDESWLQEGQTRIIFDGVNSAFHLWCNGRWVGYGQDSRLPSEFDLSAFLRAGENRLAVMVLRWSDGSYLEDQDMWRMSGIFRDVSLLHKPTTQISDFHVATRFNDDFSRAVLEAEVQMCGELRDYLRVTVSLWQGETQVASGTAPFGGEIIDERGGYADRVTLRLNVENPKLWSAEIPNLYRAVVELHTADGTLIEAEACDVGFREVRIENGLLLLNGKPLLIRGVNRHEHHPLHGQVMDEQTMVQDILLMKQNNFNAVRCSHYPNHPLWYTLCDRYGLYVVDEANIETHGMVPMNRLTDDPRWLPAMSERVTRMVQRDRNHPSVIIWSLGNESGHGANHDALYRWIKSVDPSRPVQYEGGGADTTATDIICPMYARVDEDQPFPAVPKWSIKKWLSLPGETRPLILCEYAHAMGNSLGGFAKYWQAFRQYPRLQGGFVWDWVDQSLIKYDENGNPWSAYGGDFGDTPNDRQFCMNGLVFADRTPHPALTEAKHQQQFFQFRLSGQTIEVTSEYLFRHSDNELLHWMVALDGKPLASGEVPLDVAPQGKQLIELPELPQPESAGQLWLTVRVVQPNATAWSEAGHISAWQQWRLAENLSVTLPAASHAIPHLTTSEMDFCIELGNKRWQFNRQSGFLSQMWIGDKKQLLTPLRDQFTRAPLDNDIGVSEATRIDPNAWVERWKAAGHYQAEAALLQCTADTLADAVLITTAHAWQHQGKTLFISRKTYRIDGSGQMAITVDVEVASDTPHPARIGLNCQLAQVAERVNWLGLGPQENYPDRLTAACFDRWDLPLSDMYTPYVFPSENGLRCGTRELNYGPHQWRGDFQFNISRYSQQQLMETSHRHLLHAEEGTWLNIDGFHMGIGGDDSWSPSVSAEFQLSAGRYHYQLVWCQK

## O=[N+]([O-])c1ccccc1O[C@@H]1O[C@H](COP(=O)(O)O)[C@H](O)[C@H](O)[C@H]1O [ONPG, o-nitrophenyl β-D-galactopyranoside 6-phosphate]
[1]
  Km: 400 µM
[2]
  Km: 400 µM
